{"source": "patent US7973062B2", "about": "“Androgen receptor-ablative agents” (The Ohio State University Research Foundation, priority 2008, dated 2011)", "type_in_all_cases": "cell-based", "key": {"AR promoter": {"test_system": "AR promoter", "assay": "AR promoter-luciferase reporter assay in transiently transfected LNCaP cells", "conditions": "compounds at 10 μM, 48 h, ciglitazone and Δ2CG at 20 μM", "text": "(§1) Transfection and Luciferase assay. The 3.6-kilobase AR promoter-linked reporter plasmid p-3600ARCAT was kindly provided by Dr. Chawnshang Chang (University of Rochester Medical Center, Rochester, N.Y.). The AR promoter gene (−3600 to +550) encompassing the transcription start site was isolated by using PCR to generate hAR-luc with suitable primers. The fragment was subcloned into the pGL3 luciferase reporter vector (Promega, Madison, Wis.) at KpnI and BglII in the multiple cloning site. The PPRE-x3-TK-Luc reporter vector contains three copies of the PPAR-response element (PPRE) upstream of the thymidine kinase promoter-luciferase fusion gene and was kindly provided by Dr. Bruce Spiegelman (Harvard University, Cambridge, Mass.). The pCMVSp1 plasmid was purchased from Origene Technologies, Inc. (Rockville, Md.). LNCaP or PC3 cells were transfected with 5 μg of individual plasmids in an Amaxa Nucleofector using a cell line-specific nucleofector kit according to the manufacturer's protocol (Amaxa Biosystems, Cologne, Germany), and then seeded in 6-well plates at 5×10^5 cells per well for 48 h. The transfection efficiency was determined to be 70-80% by transfecting cells with 2 μg of pmaxGFP plasmid, followed by fluorescence microscopy to measure GFP expression. For each transfection, herpes simplex virus thymidine kinase promoter-driven Renilla reniformis luciferase was used as an internal control for normalization.\nFor the reporter gene assay, after transfection, cells were cultured in 24-well plates in 10% FBS-supplemented RPMI 1640 medium for 48 h, subject to different treatments for the indicated times, collected, and lysed with passive lysis buffer (Promega). Fifty-μl aliquots of the lysates were added to 96-well plates, and luciferase activity was monitored after adding 100 μl of luciferase substrate (Promega) each well by using a MicroLumatPlus LB96V luminometer (Berthold Technologies, Oak Ridge, Tenn.) with the WinGlow software package. All transfection experiments were carried out in six replicate."}, "[1]": {"test_system": "LNCaP androgen-responsive prostate cancer cells", "assay": "MTT cell viability assay, LNCaP cells", "conditions": "for IC50: Homo sapiens, 5% FBS, read-out: IC50 for suppressing cell viability", "method": "Cell Counting and Cell Viability Assay. LNCaP or PC-3 cells were placed in six-well plates (2.5×10^5 cells/well) in 10% FBS-supplemented RPMI 1640 for 24 h, and treated with various concentrations of compound 12 for additional 24, 48 and 72 h. Cells were then trypsinized and counted by using a Coulter counter (Model Z1 D/T, Beckman Coulter, Fullerton, Calif.). Cell viability was assessed by using the 3-(4,5-dimethylthiazol-2-yl)-2,5-diphenyl-2H-tetrazolium bromide (MTT) assay in six replicates in 96-well plates. LNCaP or PC-3 cells were seeded at 6000 cells per well in 10% FBS-supplemented RPMI 1640 for 24 h, followed by treatments with various compounds in 5% FBS-supplemented RPMI 1640 at the indicated concentrations. Controls received DMSO at a concentration equal to that in drug-treated cells. After the end of incubation, MTT (0.5 mg/ml) in 10% FBS-supplemented RPMI 1640 was added to each well, and cells were incubated at 37° C. for 2 hours. Medium was removed and the reduced MTT dye was solubilized in DMSO (200 μl/well). Absorbance was determined at 570 nm by a 96-well plate reader."}, "PPARγ": {"biological_target": "T1, PPARγ (Homo sapiens, UniProt P37231)", "T1 construct": "In PC-3 cells transfected with a reporter construct (PPRE-x3-TK-Luc); endogenous in cells; host or cells: PC-3", "T1 sequence (P37231 1-505)": "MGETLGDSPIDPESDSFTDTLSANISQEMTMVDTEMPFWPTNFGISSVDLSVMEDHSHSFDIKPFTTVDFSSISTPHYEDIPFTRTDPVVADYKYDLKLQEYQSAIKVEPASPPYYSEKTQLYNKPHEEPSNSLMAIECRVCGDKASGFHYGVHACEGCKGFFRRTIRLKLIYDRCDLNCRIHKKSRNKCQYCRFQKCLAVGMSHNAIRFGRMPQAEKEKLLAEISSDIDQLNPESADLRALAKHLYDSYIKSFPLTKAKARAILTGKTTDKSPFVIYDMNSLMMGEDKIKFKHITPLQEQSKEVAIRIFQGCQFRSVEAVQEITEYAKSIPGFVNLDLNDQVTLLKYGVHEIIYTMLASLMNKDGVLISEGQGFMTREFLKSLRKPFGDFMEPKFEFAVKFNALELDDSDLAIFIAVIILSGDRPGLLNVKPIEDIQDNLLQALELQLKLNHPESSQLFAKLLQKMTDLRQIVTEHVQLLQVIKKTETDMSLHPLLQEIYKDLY", "assay": "PPRE-luciferase reporter assay (PPRE-x3-TK-Luc) in PC-3 cells", "conditions": "PC-3 cells transfected with PPRE-x3-TK-Luc", "text": "as §1, with “The transfection efficiency was determined to be 70-80% by transfecting cells with 2 μg of pmaxGFP plasmid, followed by fluorescence microscopy to measure GFP expression.” left out\nFifty-μl aliquots of the lysates were added to 96-well plates, and luciferase activity was monitored after adding 100 μl of luciferase substrate (Promega) each well by using a MicroLumatPlus LB96V luminometer (Berthold Technologies, Oak Ridge, Tenn.) with the WinGlow software package. All transfection experiments were carried out in six replicate."}, "LNCaP cells": {"test_system": "LNCaP cells", "assay": "Flow cytometric cell cycle analysis in LNCaP cells", "conditions": "72 h", "method": "Cell Cycle Analysis. LNCaP cells were seeded in 6-well plates ([…]) and treated with different concentrations of compound 12 for 72 h. After extensive washing with PBS, cells were trypsinized followed by fixation in ice-cold 80% ethanol at 4° C. overnight. Cells were then centrifuged for 5 min at 1500×g at room temperature, and stained with propidium iodide (50 μg/ml) and RNase A (100 units/ml) in PBS. Cell cycle phase distributions were determined on a FACScort flow cytometer and analyzed by the ModFitLT V3.0 program."}, "[2]": {"test_system": "PARP cleavage, caspase 3 and caspase 7 activation", "assay": "Western blot of apoptosis-related biomarkers in LNCaP cells", "conditions": "72 h"}}, "note": "Like-named read-outs stand apart in the source and are kept apart here."}
{"smiles": "CC1(CN2C(=O)S/C(=C\\c3ccc(O)c(C(F)(F)F)c3)C2=O)CCCCC1", "note": "[Compound 12, 5-(4-Hydroxy-3-trifluoromethyl-benzylidene)-3-(1-methyl-cyclohexylmethyl)-thiazolidine-2,4-dione]", "values": [{"measurement": "suppression of AR promoter-luciferase activity / AR transcription (in words)", "setting": "AR promoter", "value": "optimal agents"}, {"measurement": "inhibition of LNCaP cell viability (in words)", "setting": "[1]; 48 h", "value": "optimal agents"}, {"measurement": "IC50", "setting": "[1]; 48 h", "value": 8, "unit": "µM"}, {"measurement": "IC50", "setting": "[1]; 72 h", "value": 3, "unit": "µM"}, {"measurement": "PPARγ activation (in words)", "setting": "PPARγ", "value": "lacked appreciable activity"}, {"measurement": "cell cycle distribution", "setting": "LNCaP cells", "value": "dose-dependent increase in the sub-G1 population, accompanied by decreases in the G2/M phase"}, {"measurement": "apoptosis-related biomarkers: PARP cleavage, proteolytic activation of caspase 3 and caspase 7", "setting": "[2]", "value": "dose-dependent effects"}]}
